Source: patent publication EP4745145A1, “SALT OF THIAZOLOPYRAZINE COMPOUND OR CRYSTAL THEREOF AND USE THEREOF” (Simcere Zaiming Pharmaceutical Co., Ltd., priority 2023, dated 2025)
Where a name gives a salt, the structure may show the parent alone.

Assays:
Type in all cases: physicochemical
[1] = Influencing factor experiment (stability under high temperature, high humidity, light)
Method: (§1) Each test sample was placed under high temperature (60 °C), high humidity (92.5%), light (7000 lux), or accelerated (40 °C, 75% RH) conditions using a 2 mL screw-thread sample vial in an open state; each sample was placed with packaging (2 layers of medicinal low-density polyethylene bags + 1 layer of polyester/aluminum/polyethylene medicinal composite film bag) under light (7000 lux) or accelerated (40 °C, 75% RH) conditions to investigate the stability of the sample.

[2] = Accelerated experiment (stability at 40 °C, 75% RH)
Method: as §1

[3] = Solubility experiment in water
Method: The thermodynamic solubility of the compounds of the present disclosure was determined using the following test method.
The thermodynamic solubility of the compounds of the present disclosure in water was investigated. Water (1000 µL) was measured and placed into a 1 mL transparent glass tube with a stopper. An appropriate amount of each sample was weighed and added to saturate the solution, and the solution was shaken to disperse the sample. […] Then, an appropriate amount of the sample was taken, filtered through a microporous filter membrane, and subjected to content determination using high-performance liquid chromatography with an external standard method. The thermodynamic solubility of each compound in water (µg/mL) was calculated.

[4] = Hygroscopicity experiment (dynamic vapor sorption); settings: 80.0% RH, 25 °C
Method: Test conditions for the instruments used in the experiments of the present disclosure: • 1. X-ray powder diffraction • Instrument model: Bruker D8 Focus • X-ray light source: Cu Kα • Kα1 (Å): 1.54060; • Wavelength λ (Å): 1.54060 • Slit (°): 2.5 • Scan mode: θ/2θ, scan range: 3-40° (2θ angle) • Retention time (s): 0.12 • Scanning step length (° 2θ): 0.01 • Voltage: 40 kV • Current: 40 mA • 2. Differential scanning calorimeter • Instrument model: Discovery DSC 2500 • Purging gas: nitrogen • Sample tray: aluminum tray, non-sealing gland • Method: linear heating • Ramping rate: 10 °C/min • Temperature range: 30 °C-400 °C • 3. Thermogravimetric analyzer • Instrument model: Discovery TA 55 • Purging gas: nitrogen • Sample tray: platinum, open • Method: linear heating • Ramping rate: Ramp from a starting temperature of 30 °C to 400 °C at a rate of 10 °C/min • Temperature range: 30 °C-400 °C • 4. Dynamic vapor sorption instrument • Instrument model: DVS Intrinsic. • DVS parameters: • Temperature: 25 °C; • Equilibrium: dm/dt = 0.002%/min • RH (%) test gradient: 10% • Range of RH (%) test gradient: 0%-90%-0%. • 5. Ion chromatography • Instrument model: Thermo Fisher Integrion, No. IC001 • Test method: Conductivity […] • Separation column: Dionex IonpacTM CS12 Guard 4 × 250 mm • Eluent: 20 mM methanesulfonic acid solution • Flow rate: 1.0 mL/min
• (1) Experimental instrument: dynamic vapor sorption DVS Intrinsic. • (2) Experimental conditions: Each test sample was taken and placed in a DVS sample pan for testing. • (3) DVS parameters: • Temperature: 25 °C; • Equilibrium: dm/dt = 0.002%/min • RH (%) test gradient: 10% • Range of RH (%) test gradient: 0%-90%-0%.

[5] = Light (7000 lux, packaged), 10d
[6] = Light (7000 lux, packaged), 32d
[7] = Accelerated (40 °C), packaged, 14d
[8] = Accelerated (40 °C), packaged, 32d

COc1ccc(Cl)cc1-c1cc(C)ncc1C(=O)Nc1nc2ncc(-c3ccc(C#N)cc3)nc2s1 [Crystal form A]
Purity ([1]; 0 h, 0d): 99.21%
Total impurities ([1]; 0 h, 0d): 0.79%
Purity ([1]; High humidity (92.5% RH), 7d): 99.26%
Total impurities ([1]; High humidity (92.5% RH), 7d): 0.74%
Purity ([1]; High humidity (92.5% RH), 14d): 99.20%
Total impurities ([1]; High humidity (92.5% RH), 14d): 0.80%
Purity ([1]; High humidity (92.5% RH), 32d): 99.21%
Total impurities ([1]; High humidity (92.5% RH), 32d): 0.79%
Purity ([1]; High temperature (60 °C), 7d): 99.23%
Total impurities ([1]; High temperature (60 °C), 7d): 0.77%
Purity ([1]; High temperature (60 °C), 14d): 99.17%
Total impurities ([1]; High temperature (60 °C), 14d): 0.83%
Purity ([1]; High temperature (60 °C), 32d): 99.15%
Total impurities ([1]; High temperature (60 °C), 32d): 0.85%
Purity ([1]; Light (7000 lux, open), 7d): 99.11%
Total impurities ([1]; Light (7000 lux, open), 7d): 0.89%
Purity ([1]; Light (7000 lux, open), 14d): 98.75%
Total impurities ([1]; Light (7000 lux, open), 14d): 1.25%
Purity ([1]; Light (7000 lux, open), 32d): 98.24%
Total impurities ([1]; Light (7000 lux, open), 32d): 1.76%
Purity [1, 5]: 99.19%
Total impurities [1, 5]: 0.81%
Purity [1, 6]: 99.22%
Total impurities [1, 6]: 0.78%
Purity ([2]; 0 h, 0d): 99.21%
Total impurities ([2]; 0 h, 0d): 0.79%
Purity ([2]; Accelerated (40 °C), open, 7d): 99.21%
Total impurities ([2]; Accelerated (40 °C), open, 7d): 0.79%
Purity ([2]; Accelerated (40 °C), open, 14d): 99.17%
Total impurities ([2]; Accelerated (40 °C), open, 14d): 0.83%
Purity ([2]; Accelerated (40 °C), open, 32d): 99.18%
Total impurities ([2]; Accelerated (40 °C), open, 32d): 0.82%
Purity [2, 7]: 99.19%
Total impurities [2, 7]: 0.81%
Purity [2, 8]: 99.19%
Total impurities [2, 8]: 0.81%
Dynamic solubility in water ([3]; 1h, 60 min): 2081.71 µg/mL
Dynamic solubility in water ([3]; 2h, 120 min): 1590.35 µg/mL
Dynamic solubility in water ([3]; 4h, 240 min): 1441.04 µg/mL
Dynamic solubility in water ([3]; 24h, 1440 min): 27.01 µg/mL
weight gain due to moisture absorption [4]: 1.6%

COc1ccc(Cl)cc1-c1cc(C)ncc1C(=O)Nc1nc2ncc(-c3ccc(C#N)cc3)nc2s1 [Amorphous form of sodium salt of compound of formula I]
Purity ([1]; 0 h, 0d): 99.31%
Total impurities ([1]; 0 h, 0d): 0.52%
Purity ([1]; High humidity (92.5% RH), 11d): 98.89%
Total impurities ([1]; High humidity (92.5% RH), 11d): 1.11%
Purity ([1]; High temperature (60 °C), 11d): 99.23%
Total impurities ([1]; High temperature (60 °C), 11d): 0.77%
Purity ([1]; Light (7000 lux, open), 7d): 97.57%
Total impurities ([1]; Light (7000 lux, open), 7d): 2.43%
Purity ([2]; 0 h, 0d): 99.31%
Total impurities ([2]; 0 h, 0d): 0.52%
Purity ([2]; Accelerated (40 °C), open, 7d): 99.33%
Total impurities ([2]; Accelerated (40 °C), open, 7d): 0.67%
Dynamic solubility in water ([3]; 1h, 60 min): 1.57 µg/mL
Dynamic solubility in water ([3]; 2h, 120 min): 4.37 µg/mL
Dynamic solubility in water ([3]; 4h, 240 min): 44.68 µg/mL
Dynamic solubility in water ([3]; 24h, 1440 min): 0.72 µg/mL

COc1ccc(Cl)cc1-c1cc(C)ncc1C(=O)Nc1nc2ncc(-c3ccc(C#N)cc3)nc2s1 [Crystal form B]
Purity ([1]; 0 h, 0d): 98.89%
Total impurities ([1]; 0 h, 0d): 1.11%
Purity ([1]; High humidity (92.5% RH), 7d): 98.60%
Total impurities ([1]; High humidity (92.5% RH), 7d): 1.40%
Purity ([1]; High humidity (92.5% RH), 14d): 98.89%
Total impurities ([1]; High humidity (92.5% RH), 14d): 1.11%
Purity ([1]; High humidity (92.5% RH), 32d): 98.83%
Total impurities ([1]; High humidity (92.5% RH), 32d): 1.17%
Purity ([1]; High temperature (60 °C), 7d): 98.98%
Total impurities ([1]; High temperature (60 °C), 7d): 1.02%
Purity ([1]; High temperature (60 °C), 14d): 98.93%
Total impurities ([1]; High temperature (60 °C), 14d): 1.07%
Purity ([1]; High temperature (60 °C), 32d): 98.84%
Total impurities ([1]; High temperature (60 °C), 32d): 1.16%
Purity ([1]; Light (7000 lux, open), 7d): 98.84%
Total impurities ([1]; Light (7000 lux, open), 7d): 1.16%
Purity ([1]; Light (7000 lux, open), 14d): 98.85%
Total impurities ([1]; Light (7000 lux, open), 14d): 1.15%
Purity ([1]; Light (7000 lux, open), 32d): 98.73%
Total impurities ([1]; Light (7000 lux, open), 32d): 1.27%
Purity [1, 5]: 98.90%
Total impurities [1, 5]: 1.10%
Purity [1, 6]: 98.90%
Total impurities [1, 6]: 1.10%
Purity ([2]; 0 h, 0d): 98.89%
Total impurities ([2]; 0 h, 0d): 1.11%
Purity ([2]; Accelerated (40 °C), open, 7d): 98.84%
Total impurities ([2]; Accelerated (40 °C), open, 7d): 1.16%
Purity ([2]; Accelerated (40 °C), open, 14d): 98.87%
Total impurities ([2]; Accelerated (40 °C), open, 14d): 1.13%
Purity ([2]; Accelerated (40 °C), open, 32d): 98.88%
Total impurities ([2]; Accelerated (40 °C), open, 32d): 1.12%
Purity [2, 7]: 98.87%
Total impurities [2, 7]: 1.13%
Purity [2, 8]: 98.82%
Total impurities [2, 8]: 1.18%
Dynamic solubility in water ([3]; 1h): <0.5 µg/mL
Dynamic solubility in water ([3]; 2h): <0.5 µg/mL
Dynamic solubility in water ([3]; 4h): <0.5 µg/mL
Dynamic solubility in water ([3]; 24h): 0.77 µg/mL
weight gain due to moisture absorption [4]: 1.5%

COc1ccc(Cl)cc1-c1cc(C)ncc1C(=O)Nc1nc2ncc(-c3ccc(C#N)cc3)nc2s1 [Crystal form E]
Purity ([1]; 0 h, 0d): 99.39%
Total impurities ([1]; 0 h, 0d): 0.52%
Purity ([1]; High humidity (92.5% RH), 11d): 99.48%
Total impurities ([1]; High humidity (92.5% RH), 11d): 0.52%
Purity ([1]; High temperature (60 °C), 11d): 99.25%
Total impurities ([1]; High temperature (60 °C), 11d): 0.75%
Purity ([1]; Light (7000 lux, open), 7d): 99.24%
Total impurities ([1]; Light (7000 lux, open), 7d): 0.76%
physical stability ([1]; high humidity (92.5% RH)): relatively poor physical stability
Purity ([2]; 0 h, 0d): 99.39%
Total impurities ([2]; 0 h, 0d): 0.52%
Purity ([2]; Accelerated (40 °C), open, 7d): 99.49%
Total impurities ([2]; Accelerated (40 °C), open, 7d): 0.51%
physical stability ([2]; accelerated (40 °C, 75% RH)): relatively poor physical stability
Dynamic solubility in water ([3]; 1h, 60 min): <0.5 µg/mL
Dynamic solubility in water ([3]; 2h, 120 min): 1.03 µg/mL
Dynamic solubility in water ([3]; 4h, 240 min): 2.26 µg/mL
Dynamic solubility in water ([3]; 24h, 1440 min): 2.72 µg/mL
weight gain due to moisture absorption [4]: 2.5%

COc1ccc(Cl)cc1-c1cc(C)ncc1C(=O)Nc1nc2ncc(-c3ccc(C#N)cc3)nc2s1 [Crystal form C]
Purity ([1]; 0 h, 0d): 99.2%
Total impurities ([1]; 0 h, 0d): 0.80%
Purity ([1]; High humidity (92.5% RH), 7d): 99.21%
Total impurities ([1]; High humidity (92.5% RH), 7d): 0.79%
Purity ([1]; High humidity (92.5% RH), 14d): 99.20%
Total impurities ([1]; High humidity (92.5% RH), 14d): 0.80%
Purity ([1]; High temperature (60 °C), 7d): 99.26%
Total impurities ([1]; High temperature (60 °C), 7d): 0.74%
Purity ([1]; High temperature (60 °C), 14d): 99.22%
Total impurities ([1]; High temperature (60 °C), 14d): 0.78%
Purity ([1]; Light (7000 lux, open), 7d): 98.29%
Total impurities ([1]; Light (7000 lux, open), 7d): 1.71%
Purity ([1]; Light (7000 lux, open), 14d): 97.16%
Total impurities ([1]; Light (7000 lux, open), 14d): 2.84%
Purity ([2]; 0 h, 0d): 99.2%
Total impurities ([2]; 0 h, 0d): 0.8%
Purity ([2]; Accelerated (40 °C), open, 7d): 99.20%
Total impurities ([2]; Accelerated (40 °C), open, 7d): 0.80%
Purity ([2]; Accelerated (40 °C), open, 14d): 99.21%
Total impurities ([2]; Accelerated (40 °C), open, 14d): 0.79%
Dynamic solubility in water ([3]; 1h, 60 min): 857.52 µg/mL
Dynamic solubility in water ([3]; 4h, 240 min): 1337.74 µg/mL
Dynamic solubility in water ([3]; 24h, 1440 min): 108.15 µg/mL
weight gain due to moisture absorption [4]: -4.3%
